In experiment [1] the test system is Yoshida Hepatoma Model. The conditions noted are these: 5, 12.5, 25 or 50 mg/kg/day; end of study; FIGS. 13A-13D. The text has this: (§1) Ascites hepatoma Yoshida AH-130 cells (10^3 cells) were inoculated into about 200 gram male Wistar rats by i.p. injection. Alternatively animals received saline injection only (sham). The day after inoculation animals were randomized into various groups and then received twice daily treatment with either placebo or various test compositions by oral gavage over a period of up to 17 days. The primary endpoints of the study included assessment of body weight, body composition (with and without tumor), and survival. Body composition was monitored by NMR. Echocardiography was used in instances to monitor condition of the heart. Organ weight was assessed at the end of the study (or after death) as a secondary endpoint. In addition, locomotor activity and food intake were also assessed. FIG. 1 provides a diagram showing the design study. R- and S-oxprenolol were manufactured to order by Peakdale Molecular, Peakdale Science Park, Sheffield Road. Chapel-en-le-Frith, High Peak SK23 0PG, UK
To study the effect of the test compounds on skeletal muscle atrophy and heart weight, the skeletal muscle mass and heart weight were determined at the end of the study.

For experiment [2], the system named is Yoshida Hepatoma Model.
Excerpt: as §1
To study the effect of the test compounds on body weight, body weight was monitored over time.
To study the effect of the test compounds as mixtures of enantiomers on body weight, body weight was monitored over time.

In experiment [3] the test system is Yoshida Hepatoma Model.
Excerpt: as §1
To study the effect of the test compounds on fat mass, the fat mass were determined at the end of the study.
To study the effect of the test compounds as mixtures of enantiomers on fat mass, the fat mass were determined at the end of the study.
The source holds these as a separate data set.

Experiment [4] relates to Yoshida Hepatoma Model. The settings on record: 5, 12.5, 25 or 50 mg/kg/day vs placebo; end of study; FIGS. 19A and 19B.
Excerpt: as §1
To study the effect of the test compounds on tumor growth, tumor growth was assessed at the end of the study.

The test system of experiment [5] is Yoshida Hepatoma Model. The settings on record: Day 11; for food intake: FIG. 17; for locomotor activity: FIG. 18.
Excerpt: as §1
To study the effect of the test compounds on quality of life, parameters of quality of life such as food intake and locomotor activity were assessed at Day 11.

For a further experiment, the system named is B16V (melanoma). The conditions noted are these: B16V cells; BrdU incorporation and XTT assay; FIG. 20. Here is the method: (§2) The effect of the test compounds on tumor growth was also evaluated in an in vitro experiment with various tumor cells, namely, Kelly (neuroblastoma), Hela-93 (cervix carcinoma), and B16V (melanoma). Cell growth was assessed by BrdU incorporation (left of FIG. 20) and XTT assay (right of FIG. 20). Doxorubicin was used as a positive control.
In general terms: Uptake of a labelled nucleoside into DNA is a usual measure of proliferation.

The subject of experiment [6] is Hela-93 (cervix carcinoma). The conditions noted are these: Hela-93 cells; BrdU incorporation and XTT assay; FIG. 20. On the procedure:
as §2

A further experiment has as its system Kelly (neuroblastoma). The conditions noted are these: Kelly cells; BrdU incorporation and XTT assay; FIG. 20. Here is the method:
as §2

Experiment [7] deals with Yoshida Hepatoma Model.
Excerpt: as §1
To study the effect of the test compounds on lean body mass, lean mass was determined at the end of the study.
To study the effect of the test compounds as mixtures of enantiomers on lean body mass, lean mass was determined at the end of the study.
This is another data set of the same source.

In experiment [8] the test system is Yoshida Hepatoma Model. As to the kind of experiment: Survival in Yoshida hepatoma model. The format is in vivo, male Wistar rats.
Excerpt: as §1
To study the effect of S-oxprenolol and R-oxprenolol on survival, survival was monitored over time.

[9] abbreviates: 5 mg/kg/day or 25 mg/kg/day vs placebo.
Where [10] appears, read: 25 mg/kg/day S-oxprenolol vs same amount of R-oxprenolol.

The text below walks through data of patent publication US11433036B2, “Oxprenolol compositions for treating cancer” (priority 2013, dated 2022).

Read-outs that look alike come from different tables or passages of the source.

In the case of `C=CCOc1ccccc1OC[C@H](O)CNC(C)C` [R-oxprenolol, (R)-(+)-oxprenolol, reference compound], in the experiment with Yoshida Hepatoma Model [1], the “mass of skeletal muscle (gastrocnemius, tibialis anterior, soleus, EDL)” value is “does not have this protective effect”. Moreover, in the experiment on Yoshida Hepatoma Model [2] (5, 12.5, 25 or 50 mg/kg/day, FIG. 7), the “change of body weight” value was “rats receiving S-oxprenolol had less body weight loss than those in the placebo group and those administered with R-oxprenolol”. Further, the “change in fat mass” value in the experiment on Yoshida Hepatoma Model [3] (5, 12.5, 25 or 50 mg/kg/day, FIG. 14) was “rats receiving S-oxprenolol at 12.5 mg/kg/day or higher had less fat mass loss than those in the placebo group or those receiving R-oxprenolol”. Also, the “weight of white adipose tissue (WAT)” value in the experiment on Yoshida Hepatoma Model [3] (5, 12.5, 25 or 50 mg/kg/day, FIG. 15A) is “S-oxprenolol had better effects in reducing fat wasting than R-oxprenolol”. Besides, the “weight of brown adipose tissue (BAT)” value in the experiment with Yoshida Hepatoma Model [3] (5, 12.5, 25 or 50 mg/kg/day, FIG. 15B) is on record as “both enantiomers of oxprenolol protect BAT mass”. Further, the “tumor growth (tumor volume, total number of cells in a tumor)” value in the experiment with Yoshida Hepatoma Model [4] is given as “did not have any significant effects on tumor growth compared to those in the placebo group”. In addition, the food intake result is reported as “higher food intake than those in the placebo group” in the experiment on Yoshida Hepatoma Model [5] (setting [9]) and “Rats receiving 25 mg/kg/day S-oxprenolol had higher food intake than those receiving the same amount of R-oxprenolol” in the experiment with Yoshida Hepatoma Model [5] (setting [10]). Moreover, the figures for the locomotor activity entry in the experiment with Yoshida Hepatoma Model [5] (setting [9]) and in the experiment on Yoshida Hepatoma Model [5] (setting [10]) were “higher locomotive activity than those in the placebo group” and “Rats receiving 25 mg/kg/day S-oxprenolol had higher locomotive activity than those receiving the same amount of R-oxprenolol”, respectively. In addition, the tumor cell proliferation entry (in the experiment on B16V (melanoma); in experiment [6]; with Kelly (neuroblastoma)) was “neither S-oxprenolol nor R-oxprenolol showed any inhibitor effects on tumor cell proliferation” each time. In addition, the “change in lean body mass” value in the experiment on Yoshida Hepatoma Model [7] (5, 12.5, 25 or 50 mg/kg/day, FIG. 10) is “rats receiving S-oxprenolol at doses of 12.5 mg/kg/day or higher had less change in lean body mass than those receiving R-oxprenolol”. Besides, the percent survival result is “did not show statistically significant improvement on survival over those in the placebo group” in the experiment on Yoshida Hepatoma Model [8] (25 mg/kg/day or 50 mg/kg/day, oral gavage twice daily, up to 17 days, FIG. 2) and “no statistically significant survival benefit over placebo was observed” with Yoshida Hepatoma Model [8] (R-oxprenolol 5, 12.5, 25 or 50 mg/kg/day, FIG. 6). Also, the survival result in the experiment on Yoshida Hepatoma Model [8] (animal inoculated with hepatocellular carcinoma cells, summary statement) was “S-oxprenolol, but not R-oxprenolol, significantly improved survival”.
Regarding `CC(C)NC[C@H](O)COc1cccc2[nH]ccc12` [S-pindolol, reference compound], the percent survival result in the experiment with Yoshida Hepatoma Model [8] (S-oxprenolol vs placebo or S-pindolol 3 mg/kg/day, FIG. 4) is recorded as “S-oxprenolol was significantly superior to either placebo or S-pindolol at its preferred dose”.
For the molecule `C=CCOc1ccccc1OCC(O)CNC(C)C` (racemic) [racemic mixture of oxprenolol, 1-[2-(allyloxy)phenoxy]-3-(isopropylamino)propan-2-ol, reference compound], the “change in body weight” value in the experiment with Yoshida Hepatoma Model [2] (S-oxprenolol 20 mg/kg/day vs racemic mixture 40 mg/kg/day, FIG. 8) is “rats receiving S-oxprenolol had less body weight loss than those receiving the racemic mixture”. Moreover, in the experiment on Yoshida Hepatoma Model [3] (S-oxprenolol 20 mg/kg/day vs racemic mixture 40 mg/kg/day, FIG. 16A), the “weight of white adipose tissue (WAT)” value is on record as “rats receiving S-oxprenolol had significantly better effect in preserving the white adipose tissue than those receiving the racemic mixture”. Moreover, the “weight of brown adipose tissue (BAT)” value in the experiment on Yoshida Hepatoma Model [3] (S-oxprenolol 20 mg/kg/day vs racemic mixture 40 mg/kg/day, FIG. 16B) is recorded as “rats receiving S-oxprenolol had better effect in preserving the brown adipose tissue than those receiving the racemic mixture”. In the experiment on Yoshida Hepatoma Model [7] (S-oxprenolol 20 mg/kg/day vs racemic mixture 40 mg/kg/day, FIG. 11A), the “change in lean body mass” value is reported as “rats receiving S-oxprenolol had less change in lean body weight than those receiving the racemic mixture”. In addition, the “change in lean body mass/days alive” value in the experiment with Yoshida Hepatoma Model [7] (S-oxprenolol 20 mg/kg/day vs racemic mixture 40 mg/kg/day, FIG. 11B) is reported as “rats receiving S-oxprenolol had less change in lean body mass than those receiving the racemic mixture”. The percent survival result with Yoshida Hepatoma Model [8] (S-oxprenolol 20 mg/kg/day vs racemic mixture 40 mg/kg/day (same amount of S-oxprenolol), FIG. 3) was “rats receiving S-oxprenolol had longer survival than those receiving the racemic mixture”.
